The CheMixHub viscosity set
± gives the uncertainty stated by the source.

Test: xn = mol fraction of the nth substance listed

c1ccccc1 + CO
viscosity [mPa·s]
Conditions | 293.15 K | 298.15 K | 303.15 K | 313.15 K | 323.15 K
101 kPa, x1 = 0.1598 | – | – | 0.564 ± 0.079 | 0.491 ± 0.071 | 0.411 ± 0.062
101 kPa, x1 = 0.3449 | – | – | 0.563 ± 0.079 | 0.507 ± 0.073 | 0.405 ± 0.061
101 kPa, x1 = 0.4474 | – | – | 0.559 ± 0.079 | 0.478 ± 0.07 | 0.414 ± 0.062
101 kPa, x1 = 0.7425 | – | – | 0.546 ± 0.077 | 0.469 ± 0.068 | 0.411 ± 0.062
101 kPa, x1 = 0.8277 | – | – | 0.54 ± 0.076 | 0.49 ± 0.071 | 0.413 ± 0.062
101 kPa, x2 = 0.0504 | – | 0.581 ± 0.01 | – | – | –
101 kPa, x2 = 0.1 | 0.622 ± 0.012 | 0.563 ± 0.01 | – | – | –
101 kPa, x2 = 0.152 | 0.615 ± 0.012 | – | 0.534 ± 0.011 | 0.468 ± 0.01 | 0.416 ± 0.009
101 kPa, x2 = 0.1998 | – | 0.553 ± 0.01 | – | – | –
101 kPa, x2 = 0.2 | 0.613 ± 0.012 | – | – | – | –
101 kPa, x2 = 0.272 | 0.613 ± 0.012 | – | 0.532 ± 0.011 | 0.461 ± 0.01 | 0.414 ± 0.009
101 kPa, x2 = 0.2982 | – | 0.56 ± 0.01 | – | – | –
101 kPa, x2 = 0.4 | 0.619 ± 0.012 | 0.561 ± 0.01 | – | – | –
101 kPa, x2 = 0.444 | 0.619 ± 0.012 | – | 0.536 ± 0.011 | 0.469 ± 0.01 | 0.415 ± 0.009
101 kPa, x2 = 0.5 | – | 0.566 ± 0.01 | – | – | –
101 kPa, x2 = 0.6 | 0.626 ± 0.013 | 0.565 ± 0.01 | – | – | –
101 kPa, x2 = 0.632 | 0.624 ± 0.013 | – | 0.535 ± 0.011 | 0.467 ± 0.01 | 0.414 ± 0.009
101 kPa, x2 = 0.7 | – | 0.56 ± 0.01 | – | – | –
101 kPa, x2 = 0.766 | 0.619 ± 0.012 | – | 0.534 ± 0.011 | 0.466 ± 0.01 | 0.412 ± 0.009
101 kPa, x2 = 0.8 | 0.626 ± 0.013 | – | – | – | –
101 kPa, x2 = 0.8009 | – | 0.557 ± 0.01 | – | – | –
101 kPa, x2 = 0.9 | 0.61 ± 0.012 | – | – | – | –
101 kPa, x2 = 0.901 | 0.604 ± 0.012 | – | 0.527 ± 0.011 | 0.464 ± 0.01 | 0.411 ± 0.009
101 kPa, x2 = 0.9013 | – | 0.553 ± 0.01 | – | – | –
101 kPa, x2 = 0.95 | – | 0.551 ± 0.01 | – | – | –
101.33 kPa, x1 = 0.04357 | 0.59 ± 0.015 | – | 0.5121 ± 0.013 | 0.4473 ± 0.012 | 0.3935 ± 0.01
101.33 kPa, x1 = 0.0572 | – | – | 0.562 ± 0.015 | 0.5 ± 0.013 | 0.415 ± 0.011
101.33 kPa, x1 = 0.1598 | – | – | 0.564 ± 0.015 | 0.491 ± 0.013 | 0.411 ± 0.011
101.33 kPa, x1 = 0.2216 | 0.6132 ± 0.016 | – | 0.528 ± 0.014 | 0.4585 ± 0.012 | 0.4016 ± 0.01
101.33 kPa, x1 = 0.2552 | – | – | 0.56 ± 0.015 | 0.505 ± 0.013 | 0.418 ± 0.011
101.33 kPa, x1 = 0.3449 | – | – | 0.563 ± 0.015 | 0.507 ± 0.014 | 0.405 ± 0.011
101.33 kPa, x1 = 0.4216 | 0.6197 ± 0.016 | – | 0.5315 ± 0.014 | 0.4613 ± 0.012 | 0.4039 ± 0.011
101.33 kPa, x1 = 0.4474 | – | – | 0.559 ± 0.015 | 0.478 ± 0.013 | 0.414 ± 0.011
101.33 kPa, x1 = 0.603 | 0.6164 ± 0.016 | – | 0.5296 ± 0.014 | 0.4593 ± 0.012 | 0.4034 ± 0.011
101.33 kPa, x1 = 0.7425 | – | – | 0.546 ± 0.015 | 0.469 ± 0.013 | 0.411 ± 0.011
101.33 kPa, x1 = 0.7816 | 0.6138 ± 0.016 | – | 0.5278 ± 0.014 | 0.4611 ± 0.012 | 0.4073 ± 0.011
101.33 kPa, x1 = 0.8277 | – | – | 0.54 ± 0.014 | 0.49 ± 0.013 | 0.413 ± 0.011
101.33 kPa, x1 = 0.9285 | 0.6252 ± 0.016 | – | 0.5399 ± 0.014 | 0.4736 ± 0.012 | 0.4198 ± 0.011
